Where two headings read alike, the source gives them in different places.
Molecular target: human PDE4D catalytic domain (UniProt no. Q08499) (Homo sapiens (Human), UniProt Q08499)
Assay: PDE4 assay (TR-FRET, FAM-cAMP cleavage)
Type: biochemical
Conditions: read-out: PDE4 IC50 range
Method in brief: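 PDE4D catalytic domain ([…]) was incubated with unlabelled cAMP plus FAM-cAMP and titrated compound, stopped with binding buffer of metal-ion nanoparticles and Tb donor. AMP generation read by TR-FRET; IC50 as 50% inhibition of cleavage versus controls, reported as nM ranges.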

[1] = human PDE4D catalytic domain, molar concentration giving 50% inhibition of substrate cleavage

Sequence of human PDE4D catalytic domain (Q08499 380-740 limits assumed): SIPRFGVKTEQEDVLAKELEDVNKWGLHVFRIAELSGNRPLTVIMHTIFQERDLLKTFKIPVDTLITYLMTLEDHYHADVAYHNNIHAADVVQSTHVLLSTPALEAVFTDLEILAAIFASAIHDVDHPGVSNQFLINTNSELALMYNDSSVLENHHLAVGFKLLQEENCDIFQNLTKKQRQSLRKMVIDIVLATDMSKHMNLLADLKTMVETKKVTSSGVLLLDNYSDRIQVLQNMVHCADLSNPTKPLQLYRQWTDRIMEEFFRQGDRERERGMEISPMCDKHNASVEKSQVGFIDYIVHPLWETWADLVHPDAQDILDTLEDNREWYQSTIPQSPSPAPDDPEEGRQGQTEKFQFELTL

SMILES	IC50 [1] [nM]	IC50 [nM]
CCc1nn(C[C@@H](C)COC(=O)c2cc(F)ccc2F)c2c1C(=O)NCC1(CCOCC1)C2 [Example 177, [(2R)-3-(3-ethyl-4-oxo-spiro[6,8-dihydro-5H-pyrazolo[4,3-c]azepine-7,4′-tetrahydropyran]-1-yl)-2-methyl-propyl] 2,5-difluorobenzoate]	< 100	
CCc1nn(CC(C)(C)COC(=O)c2ccc(S(=O)(=O)N3CCN(C(C)=O)CC3)cc2)c2c1C(=O)NCC1(CCOCC1)C2 [Example 324, [3-(3-ethyl-4-oxo-spiro[6,8-dihydro-5H-pyrazolo[4,3-c]azepine-7,4′-tetrahydropyran]-1-yl)-2,2-dimethyl-propyl] 4-(4-acetylpiperazin-1-yl)sulfonylbenzoate]		< 100
CCc1nn(CC(C)(C)COC(=O)c2ccc(C(F)(F)F)cc2)c2c1C(=O)NCC1(CCOCC1)C2 [Example 304, [3-(3-ethyl-4-oxo-spiro[6,8-dihydro-5H-pyrazolo[4,3-c]azepine-7,4′-tetrahydropyran]-1-yl)-2,2-dimethyl-propyl] 4-(trifluoromethyl)benzoate]		< 100
CCc1nn(C[C@@H](C)COC(=O)c2cccc(C(=O)NC)c2)c2c1C(=O)NCC1(CCOCC1)C2 [Example 264, [(2R)-3-(3-ethyl-4-oxo-spiro[6,8-dihydro-5H-pyrazolo[4,3-c]azepine-7,4′-tetrahydropyran]-1-yl)-2-methyl-propyl] 3-(methylcarbamoyl)benzoate]		< 100
CCc1nn(C[C@@H](C)COC(=O)c2cccc(S(=O)(=O)NC)c2)c2c1C(=O)NCC1(CCOCC1)C2 [Example 228, [(2R)-3-(3-ethyl-4-oxo-spiro[6,8-dihydro-5H-pyrazolo[4,3-c]azepine-7,4′-tetrahydropyran]-1-yl)-2-methyl-propyl] 3-(methylsulfamoyl)benzoate]	< 100	
CCc1ccc(C(=O)OCCCn2nc(CC)c3c2CC2(CCOCC2)CNC3=O)cc1 [Example 2, 3-(3-Ethyl-4-oxo-spiro[6,8-dihydro-5H-pyrazolo[4,3-c]azepine-7,4′-tetrahydropyran]-1-yl)propyl 4-ethylbenzoate]	< 100	
CCc1nn(CCCOC(=O)c2ccc(C#N)cc2F)c2c1C(=O)NCC1(CCOCC1)C2 [Example 54, 3-(3-ethyl-4-oxo-spiro[6,8-dihydro-5H-pyrazolo[4,3-c]azepine-7,4′-tetrahydropyran]-1-yl)propyl 4-cyano-2-fluoro-benzoate]	< 100	
CCc1nn(C[C@@H](C)COC(=O)c2cccc(C(=O)N3CCN(C(C)=O)CC3)c2)c2c1C(=O)NCC1(CCOCC1)C2 [Example 273, [(2R)-3-(3-ethyl-4-oxo-spiro[6,8-dihydro-5H-pyrazolo[4,3-c]azepine-7,4′-tetrahydropyran]-l-yl)-2-methyl-propyl] 3-(4-acetylpiperazine-1-carbonyl)benzoate]		< 100
CCc1nn(CCCOC(=O)c2ccc(OC)c(Cl)c2)c2c1C(=O)NCC1(CCOCC1)C2 [Example 86, 3-(3-ethyl-4-oxo-spiro[6,8-dihydro-5H-pyrazolo[4,3-c]azepine-7,4′-tetrahydropyran]-1-yl)propyl 3-chloro-4-methoxy-benzoate]	< 100	
CCc1nn(C[C@@H](C)COC(=O)c2ccc(F)c(Cl)c2)c2c1C(=O)NCC1(CCOCC1)C2 [Example 204, [(2R)-3-(3-ethyl-4-oxo-spiro[6,8-dihydro-5H-pyrazolo[4,3-c]azepine-7,4′-tetrahydropyran]-1-yl)-2-methyl-propyl] 3-chloro-4-fluoro-benzoate]	< 100	
CCc1nn(CCCOC(=O)c2cccc(Cl)c2OC)c2c1C(=O)NCC1(CCOCC1)C2 [Example 94, 3-(3-ethyl-4-oxo-spiro[6,8-dihydro-5H-pyrazolo[4,3-c]azepine-7,4′-tetrahydropyran]-1-yl)propyl 3-chloro-2-methoxy-benzoate]	< 100	
CCc1nn(C[C@@H](C)COC(=O)c2cccc(C(=O)N(C)C)c2)c2c1C(=O)NCC1(CCOCC1)C2 [Example 266, [(2R)-3-(3-ethyl-4-oxo-spiro[6,8-dihydro-5H-pyrazolo[4,3-c]azepine-7,4′-tetrahydropyran]-1-yl)-2-methyl-propyl] 3-(dimethylcarbamoyl)benzoate]		< 100
CCc1nn(C[C@@H](C)COC(=O)c2c(F)cccc2F)c2c1C(=O)NCC1(CCOCC1)C2 [Example 176, [(2R)-3-(3-ethyl-4-oxo-spiro[6,8-dihydro-5H-pyrazolo[4,3-c]azepine-7,4′-tetrahydropyran]-1-yl)-2-methyl-propyl] 2,6-difluorobenzoate]	< 100	
CCc1nn(CC(C)(C)COC(=O)c2ccccc2C(F)(F)F)c2c1C(=O)NCC1(CCOCC1)C2 [Example 303, [3-(3-ethyl-4-oxo-spiro[6,8-dihydro-5H-pyrazolo[4,3-c]azepine-7,4′-tetrahydropyran]-1-yl)-2,2-dimethyl-propyl] 2-(trifluoromethyl)benzoate]		< 100
CCc1nn(CC(C)(C)COC(=O)c2ccc(F)c(F)c2)c2c1C(=O)NCC1(CCOCC1)C2 [Example 294, [3-(3-ethyl-4-oxo-spiro[6,8-dihydro-5H-pyrazolo[4,3-c]azepine-7,4′-tetrahydropyran]-1-yl)-2,2-dimethyl-propyl] 3,4-difluorobenzoate]		< 100
CCc1nn(C[C@@H](C)COC(=O)c2ccc(C(=O)N3CCN(C(C)=O)CC3)cc2)c2c1C(=O)NCC1(CCOCC1)C2 [Example 262, [(2R)-3-(3-ethyl-4-oxo-spiro[6,8-dihydro-5H-pyrazolo[4,3-c]azepine-7,4′-tetrahydropyran]-1-yl)-2-methyl-propyl] 4-(4-acetylpiperazine-1-carbonyl)benzoate]	< 100	
CCc1nn(CCCOC(=O)c2ccc(OC)cc2F)c2c1C(=O)NCC1(CCOCC1)C2 [Example 64, 3-(3-ethyl-4-oxo-spiro[6,8-dihydro-5H-pyrazolo[4,3-c]azepine-7,4′-tetrahydropyran]-1-yl)propyl 2-fluoro-4-methoxy-benzoate]	< 100	
CCc1nn(C[C@@H](C)COC(=O)c2cccc(C(F)(F)F)c2Cl)c2c1C(=O)NCC1(CCOCC1)C2 [Example 235, [(2R)-3-(3-ethyl-4-oxo-spiro [6,8-dihydro-5H-pyrazolo[4,3-c]azepine-7,4′-tetrahydropyran]-1-yl)-2-methyl-propyl] 2-chloro-3-(trifluoromethyl)benzoate]	< 100	
CCc1nn(CC(C)(C)COC(=O)c2ccc(S(=O)(=O)N(C)C)cc2)c2c1C(=O)NCC1(CCOCC1)C2 [Example 318, [3-(3-ethyl-4-oxo-spiro[6,8-dihydro-5H-pyrazolo[4,3-c]azepine-7,4′-tetrahydropyran]-1-yl)-2,2-dimethyl-propyl] 4-(dimethylsulfamoyl)benzoate]		< 100
CCc1nn(C[C@@H](C)COC(=O)c2cccc(S(=O)(=O)CC)c2)c2c1C(=O)NCC1(CCOCC1)C2 [Example 226, [(2R)-3-(3-ethyl-4-oxo-spiro[6,8-dihydro-5H-pyrazolo[4,3-c]azepine-7,4′-tetrahydropyran]-1-yl)-2-methyl-propyl] 3-ethylsulfonylbenzoate]	< 100	
CCc1nn(CC(C)(C)COC(=O)c2ccc(S(=O)(=O)N3CCCC3)cc2)c2c1C(=O)NCC1(CCOCC1)C2 [Example 321, [3-(3-ethyl-4-oxo-spiro[6,8-dihydro-5H-pyrazolo[4,3-c]azepine-7,4′-tetrahydropyran]-1-yl)-2,2-dimethyl-propyl] 4-pyrrolidin-1-ylsulfonylbenzoate]		< 100
